“Also recorded” adds a separate entry of the source.
Key:
narcoleptic Ox-/- mice [1] = details: orexin KO mouse model, literature; cited from earlier work
narcoleptic Ox-/- mice [2] = assay: DREM cataplectic-like episodes in narcoleptic orexin knockout mice; type: in vivo; details: oral
[3] = poor metabolizers (PM) of sparteine/debrisoquine, 50 mg racemic flecainide acetate (Gross et al, 1989); cited from earlier work
Cx40 = target: T1, Cx40 (Homo sapiens, UniProt P36382); assay: Dye transfer (cell-parachute) gap junction assay, Rin-Cx40 cells; type: cell-based; details: flecainide racemate 70, 140 or 280 μM, 4 hours, flow cytometry
T1 construct: expressed in transfected cells; host or cells: rat insulinoma RIN cell line (Rin-Cx40), pcDNA3.1/V5-His-TOPO, geneticin-selected
Procedure: (§1) The rat insulinoma RIN cell line, deficient in GJIC (del Corsso et al, 2006), was grown in OptiMem medium, supplemented with 10% fetal calf serum. GJB6 (Cx30), GJB1 (Cx32), GJB2 (Cx26), GJA5 (Cx40) and GJA1 (Cx43) open reading frames were amplified from human cDNA. The open reading frames were cloned in pcDNA3.1/V5-His-TOPO (Invitrogen). Cells were transfected using Lipofectamine and further selected using geneticin.
(§2) Cells were seeded and loaded with two fluorochromes, calcein acetoxymethyl ester, a gap junction permeable dye, and Vybrant Dil, a membrane lipophilic dye. […] Flow cytometry was conducted on a FACScan. Inhibition was quantified as the relative number of receiver cells that gained fluorescence to the total number of receiver cells (non GJ-mediated dye transfer was then substracted to these ratio based on connexin non-expressing RIN cells, defined at background dye transfer ratio). This ratio of cellular coupling was then normalized, after each treatment, on the vehicle one.

Cx30 = target: T2, Cx30 (Homo sapiens, UniProt O95452); assay: Dye transfer (cell-parachute) gap junction assay, Rin-Cx30 cells; type: cell-based; details: flecainide racemate 70, 140 or 280 μM, 4 hours, flow cytometry
T2 construct: expressed in transfected cells; host or cells: rat insulinoma RIN cell line (Rin-Cx30), pcDNA3.1/V5-His-TOPO, geneticin-selected
Procedure: as §1, §2

mice [4] = assay: T-maze alternating sequential test (spatial working memory); type: in vivo; details: intraperitoneal
Excerpt: The alternating sequential test is widely used to assess spatial working memory in mice (Beracochea & Jaffard, 1987). Spontaneous alternation is the innate tendency of rodents to alternate their choices to entry into the compartments of arrival of a T-maze device, over successive trials. To alternate during a given trial N, the animal must remember the choice made selectively in test N−1, so the decline in alternating will reflect the phenomenon of oblivion. The response in alternating is performance measure. Sequential alternating assesses more specifically the sensitivity to interference, a major factor in oblivion.
The experiment takes place in a T-maze (50 cm×10 cm×25 cm). All the subjects were given 7 successive trials separated by a 120-s intertrial interval. To begin a trial, the mouse was placed in the start box for 120 s before the door to the stem was opened. When the subject entered one of the goal arms, the door to that arm was closed. The chosen arm and the time that elapsed between opening the door and the arrival to the end of the chosen arm (task achievement time) were registered. Following a 30-s confinement period (fixed and invariant) in the chosen arm, the animal was removed and placed in the start box for a new trial. Between each test, the unit is cleaned with a cloth soaked in water and alcohol to avoid olfactory detection. […]

[5] = tested on: cardiac myocyte cell pairs; details: cardiac myocyte cell pairs (Daleau et al, 1998); cited from earlier work
RIN cells = assay: Toxicity analysis, cell viability by WST-1; type: cell-based, rat; details: RIN cells treated 4 hours, grown 24 h; at the dose inhibiting cerebral connexins
Procedure: Twenty thousand RIN were seeded in 100 μl of culture medium in 96-wells plates. After 48 h culture, cells were treated for 4 hours with previously identified chemical compounds at several concentrations. Cells were rinsed in PBS and grown 24 h in fresh medium. Cell viability was measured by using WST-1 (Roche).

Cx43 = target: T3, Cx43 (Homo sapiens, UniProt P17302); assay: Dye transfer (cell-parachute) gap junction assay, Rin-Cx43 cells; type: cell-based; details: flecainide racemate 70, 140 or 280 μM, 4 hours, flow cytometry
T3 construct: expressed in transfected cells; host or cells: rat insulinoma RIN cell line (Rin-Cx43), pcDNA3.1/V5-His-TOPO, geneticin-selected
Procedure: as §1, §2

Cx26 = target: T4, Cx26 (Homo sapiens, UniProt P29033); assay: Dye transfer (cell-parachute) gap junction assay, Rin-Cx26 cells; type: cell-based; details: flecainide racemate 70, 140 or 280 μM, 4 hours, flow cytometry
T4 construct: expressed in transfected cells; host or cells: rat insulinoma RIN cell line (Rin-Cx26), pcDNA3.1/V5-His-TOPO, geneticin-selected
Procedure: as §1, §2

Cx32 = target: T5, Cx32 (Homo sapiens, UniProt P08034); assay: Dye transfer (cell-parachute) gap junction assay, Rin-Cx32 cells; type: cell-based; details: flecainide racemate 70, 140 or 280 μM, 4 hours, flow cytometry
T5 construct: expressed in transfected cells; host or cells: rat insulinoma RIN cell line (Rin-Cx32), pcDNA3.1/V5-His-TOPO, geneticin-selected
Procedure: as §1, §2

mice [6] = assay: Locomotor activity by video tracking; type: in vivo; details: oral
Procedure: Locomotor activity is evaluated by video tracking. Videos have been analyzed using Ethovision XT software (Noldus®).*: p<0.01 in a Two-Way ANOVA analysis

[7] = tested on: Wild-type C57bl/6 male mice; assay: Wake duration by polysomnographic analysis; type: in vivo; details: oral
Excerpt: Wild-type C57bl/6 male mice (n=9/groups) were implanted with EEG/EMG/EOG electrodes for polysomnographic analyses. […] Here the inventors represented the duration of wake during the first three hours (after a one-hour period post-administration). **: p<0.01 in a One-Way ANOVA analysis.

[8] = flecainide racemate 1 mg/kg alone

T3 sequence (P17302 2-382 limits assumed): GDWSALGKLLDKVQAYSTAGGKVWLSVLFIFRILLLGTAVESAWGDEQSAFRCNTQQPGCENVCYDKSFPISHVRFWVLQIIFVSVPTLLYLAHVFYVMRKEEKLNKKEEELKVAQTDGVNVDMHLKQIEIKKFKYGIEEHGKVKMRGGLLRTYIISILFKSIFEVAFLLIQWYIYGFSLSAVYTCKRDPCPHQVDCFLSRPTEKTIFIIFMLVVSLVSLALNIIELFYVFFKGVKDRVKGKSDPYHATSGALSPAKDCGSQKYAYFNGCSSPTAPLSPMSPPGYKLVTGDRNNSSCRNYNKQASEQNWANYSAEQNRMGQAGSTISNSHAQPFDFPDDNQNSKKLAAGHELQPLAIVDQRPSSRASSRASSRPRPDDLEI
T2 sequence (O95452 whole entry): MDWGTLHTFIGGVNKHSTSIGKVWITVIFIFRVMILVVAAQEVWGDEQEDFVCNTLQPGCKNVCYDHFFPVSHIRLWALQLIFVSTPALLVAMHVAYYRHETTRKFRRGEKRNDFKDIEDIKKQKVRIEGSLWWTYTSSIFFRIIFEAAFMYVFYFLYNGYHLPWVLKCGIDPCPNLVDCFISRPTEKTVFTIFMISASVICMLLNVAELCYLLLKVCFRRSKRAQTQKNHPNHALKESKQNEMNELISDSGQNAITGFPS
T5 sequence (P08034 whole entry): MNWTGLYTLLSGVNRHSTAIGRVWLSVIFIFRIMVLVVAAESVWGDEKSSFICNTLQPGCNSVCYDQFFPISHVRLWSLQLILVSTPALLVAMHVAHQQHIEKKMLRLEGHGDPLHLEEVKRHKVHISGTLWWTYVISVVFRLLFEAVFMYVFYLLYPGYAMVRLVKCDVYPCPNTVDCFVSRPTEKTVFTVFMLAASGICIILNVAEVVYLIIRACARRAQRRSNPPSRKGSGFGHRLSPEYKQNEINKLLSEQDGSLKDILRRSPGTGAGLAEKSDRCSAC
T1 sequence (P36382 whole entry): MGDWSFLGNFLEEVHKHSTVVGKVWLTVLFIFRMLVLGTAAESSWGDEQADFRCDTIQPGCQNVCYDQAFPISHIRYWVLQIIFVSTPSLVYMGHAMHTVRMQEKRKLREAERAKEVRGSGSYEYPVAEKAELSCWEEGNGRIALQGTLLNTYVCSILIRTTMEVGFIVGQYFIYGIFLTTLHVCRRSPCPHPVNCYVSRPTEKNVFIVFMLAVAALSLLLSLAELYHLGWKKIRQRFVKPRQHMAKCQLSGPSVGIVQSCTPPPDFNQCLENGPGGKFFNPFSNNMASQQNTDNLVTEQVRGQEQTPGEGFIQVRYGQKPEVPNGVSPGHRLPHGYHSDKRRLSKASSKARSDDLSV

NC(=O)C[S+]([O-])C(c1ccccc1)c1ccccc1 (stereo not drawn) [modafinil, 2-[(diphenylmethyl)sulfinyl] acetamide]
DREM episodes under modafinil (Lin et al, 2008) (narcoleptic Ox-/- mice [1]): allows DREM episodes to persist
DREM cataplectic-like phenotype, modafinil alone (narcoleptic Ox-/- mice [2]; modafinil 64 mg/kg alone): do not have any significant effect

O=C(NC[C@@H]1CCCCN1)c1cc(OCC(F)(F)F)ccc1OCC(F)(F)F [S-flecainide, (S)—N-(piperidin-2-ylmethyl)-2,5-bis(2,2,2-trifluoroethoxy)benzamide]
half-life [3]: 9.8 h
urinary recovery [3]: 12.0 ± 3.7 mg

O=C(NCC1CCCCN1)c1cc(OCC(F)(F)F)ccc1OCC(F)(F)F (racemic) [flecainide, N-(piperidin-2-ylmethyl)-2,5-bis(2,2,2-trifluoroethoxy) benzamide]
Inhibition of gap junction dye transfer (cellular coupling) (Cx40): inhibits all the tested isoforms
DREM cataplectic-like phenotype, flecainide alone (narcoleptic Ox-/- mice [2]; [8]): no effect
Inhibition of gap junction dye transfer (cellular coupling) (Cx30): inhibits all the tested isoforms; also recorded: higher inhibition levels
Cognitive (promnesiant) effect, flecainide alone (mice [4]; [8]): no own cognitive effect
Promnesiant activity of modafinil (percentage of alternation) with flecainide added (mice [4]; modafinil 64 mg/kg + flecainide racemate 1 mg/kg): significantly potentiates
Influence on junctional resistance [5]: not to influence
Cell viability (WST-1) (RIN cells): no cell toxicity
Inhibition of gap junction dye transfer (cellular coupling) (Cx43): inhibits all the tested isoforms; also recorded: higher inhibition levels
Inhibition of gap junction dye transfer (cellular coupling) (Cx26): inhibits all the tested isoforms; also recorded: higher inhibition levels
Inhibition of gap junction dye transfer (cellular coupling) (Cx32): inhibits all the tested isoforms
Locomotor effect, flecainide alone (mice [6]; [8]): devoid of any own locomotor effect
Duration of effect of modafinil on locomotor activity with flecainide added (mice [6]; modafinil 64 mg/kg + flecainide 1 mg/kg): significantly increases the duration of effect of modafinil
Wake duration, flecainide alone ([7]; flecainide 1 mg/kg alone): devoid of own effect on wake duration
Waking effect of modafinil (wake duration) with flecainide added ([7]; modafinil 32 mg/kg + flecainide racemate 1 mg/kg, first three hours after one-hour period): significantly increases

O=C(NC[C@H]1CCCCN1)c1cc(OCC(F)(F)F)ccc1OCC(F)(F)F [R-flecainide, (R)—N-(piperidin-2-ylmethyl)-2,5-bis(2,2,2-trifluoroethoxy)benzamide]
half-life [3]: 12.9 h
urinary recovery [3]: 15.6 ± 3.7 mg
DREM cataplectic-like phenotype, flecainide enantiomer combined with modafinil (narcoleptic Ox-/- mice [2]; modafinil 64 mg/kg + enantiomer 1 mg/kg, R- compared with S-flecainide): more efficient
